Results reported in patent US20260041652A1, “SYSTEM AND METHOD FOR PREVENTING ALOPECIA” (Follea International, priority 2024, published 2026).

Test system: scalp hair follicles
Test: Epilation force measured with trichotillometer vs placebo (Example 5)
Type: in vivo, human
Settings: 10% solution vs placebo, average of 10 subjects; listed as 10% PE
Protocol: To evaluate the effect of a topically applied α1-AR agonist on the force required to pluck hairs from the scalp, a hand-held spring dynamometer, or “trichotillometer” was used (8). The trichotillometer records the maximum force threshold, in grams, required to pluck a single hair from the scalp; the performance and statistical variance of the instrument have been reported previously (8-10). Force measurements were performed using the trichotillometer on 10 subjects. The frontal area of scalp was divided into two 8×10 cm2 areas. On the right side 0.5 mL of a placebo vehicle was applied. […] After 45 minutes, ten hairs were plucked from each of the target areas with the trichotillometer.

CNC[C@H](O)c1cccc(O)c1 [phenylephrine]
average increase of epilation force threshold: 172%
